In patent US20210038591A1, “VIRAL VECTOR TRANSDUCTION” (Oxford University Innovation Limited, priority 2018, published 2021):

What was measured:
[1] = mefloquine enantiomers; cited from earlier work
retina of C57BL/6 mice [2] = assay: Subretinal co-injection of AAV GFP vector and HCQ in mice, OCT retinal thickness; type: in vivo, mouse; details: subretinal injection suspension with 3.125 uM or 18.75 uM HCQ, OCT at 2, 4 and 8 weeks
Procedure: (§1) Subretinal injections. 7 week old female C57BL/6 mice were subretinally injected with 1.2 μL vector suspension (1×10^8 genome copies). The vector was prepared with a 3.125 uM or 18.75 uM final concentration of HCQ with control preparations without any HCQ. Animals were injected with an AAV+HCQ preparation in one eye and AAV only in the paired eye.
OCT analysis. Animals were subject to wide-field spectral-domain optical coherence tomography (OCT, Spectralis HRA, Heidelberg Engineering) at 2, 4 and 8 weeks post-injection. Mice were scanned using a 55° lens and 8 radial sections were taken with a real-time average process of 25 frames. The total retinal thickness and the outer limiting membrane (OLM) thickness were manually measured on alternate radial sections using a calliper.

retina of C57BL/6 mice [3] = assay: Subretinal co-injection of AAV GFP vector and HCQ in mice, cSLO fundus autofluorescence; type: in vivo, mouse; details: AAV 1×10^8 genome copies with 18.75 uM HCQ, 4 and 8 weeks post-injection
Procedure: as §1
Confocal scanning laser ophthalmoscope (cSLO) analysis. Standardized mouse autofluorescence (AF) imaging using a cSLO (Spectralis HRA, Heidelberg Engineering) was performed in all animals according to previously published protocol. All images were recorded using the 55° lens of the Spectralis HRA at 2, 4 and 8 weeks post-injection. Images were recorded using a standardized signal detector sensitivity. For quantitative analysis of fundus AF, the mean grey level was measured within a ring-shaped area located at radii between 350 and 860 pixels from the optic disc centre using ImageJ software (NIH).

Primary NHP RPE cells [4] = assay: HCQ effect on AAV transduction in primary NHP RPE cells, GFP protein western blot; type: cell-based, Rhesus macaque (M. mullata); details: 18.75 μM HCQ
Procedure: (§2) Harvesting non-human primate (NHP) retinal pigment epithelium (RPE) cells. After enucleation, the cornea and lens were removed under direct visualization with a surgical microscope. Radial incisions were made towards the posterior pole to flatten the eyecup. The retina was removed by blunt dissection and the remaining eyecup was placed in media and stored on ice until the RPE cells were removed. RPE cells were detached using the TrypLE cell dissociation reagent and were cultured at 37° C.
(§3) Cell culture. Primary NHP RPE cells were seeded into a 12-well plate. 24 hr after seeding, the cells were incubated in media with 3.125 uM or 18.75 uM of HCQ for 1 hr prior to transduction with 2×10^9 genome copies per well. Cells were imaged 3 days post-transduction.
Protein extraction. The flow through from RNA extraction above was combined with 4 volumes of acetone and incubated on ice for 30 min. Samples were centrifuged at 17,000×g for 30 min, the supernatant was discarded and the pellet washed in 100 μL of ice-cold ethanol. Pellets were resuspended in 1% SDS.
(§4) Western blot. Total protein content in cell lysates was determined using the bicinchoninic acid method. GFP and actin proteins were probed using monoclonal antibodies, and detected using ECL and Odyssey Imaging System (LI-COR). Data analysis was performed using ImageStudio Lite software (LI-COR). GFP band density was normalised to β-actin.

[5] = system: Wildtype (WT) mouse embryonic fibroblasts (MEFs); assay: HCQ effect on AAV (rAAV2.CAG.GFP.WPRE.pA) transduction in MEFs, flow cytometry GFP / 7-AAD; type: cell-based
Procedure: Cell culture. Wildtype (WT) mouse embryonic fibroblasts (MEFs) were seeded into 6-well plates. 24 hr after seeding the cells were incubated in culture media with HCQ concentrations of 3.125-50 uM for 1 hr prior to transduction with a rAAV2.CAG.GFP.WPRE.pA vector at a MOI of 1000. The cells were cultured in HCQ containing media until harvesting. Cells were imaged 3 days post-transduction (FIG. 1A).
Flow cytometry analysis. Cells were processed 3 days post-transduction and stained with the cell viability dye 7-AAD for 5 minutes prior to flow cytometry analysis. Fluorescent light was measured by a BD LSRFortessa flow cytometer using a blue laser with the bandpass filters 695 nm/[…] and 530 nm/[…] to detect the fluorochromes of 7-AAD and GFP, respectively (FIG. 1a).

Primary NHP RPE cells [6] = assay: HCQ effect on AAV transduction in primary NHP RPE cells, GFP qPCR; type: cell-based, Rhesus macaque (M. mullata); details: 18.75 μM HCQ, 3 days post-transduction, normalized to β-actin, N=3, p=0.0253
Procedure: as §2, §3
RNA & protein extraction and cDNA synthesis. The primary NHP RPE were harvested for RNA extraction 3-days post-AAV transduction with HCQ. Total RNA was extracted using the RNeasy Mini Kit (Qiagen) according to the manufacturer's instructions. Copy DNA was synthesised using 850-1500 ng of RNA using the Superscript III Kit (Invitrogen) with an oligo dT primer.
qPCR analysis. qPCR was carried out using TaqMan probes against GFP and β-actin in a CFX Connect thermal cycler (BioRad). GFP expression was normalized to β-actin and represented as a fold change to transduced cells incubated without HCQ.

human retinal explants = assay: HCQ effect on AAV transduction in human retinal explants, mean grey value (GFP fluorescence); type: cell-based; details: 3.125 uM HCQ, 1×10^9 genome copies rAAV2.CAG.GFP.WPRE.pA, imaged every 2 days for 11 days, n=6, p=0.0213
Procedure: Harvesting tissue. Human retina fragments was extracted during routine retinal surgery in which a retinectomy was required (ethics approved). Fragments of retina were removed via a 23G sclerostomy with vitrectomy cutter (at minimal cut rate) and manual aspiration.
Culturing explants. Within 1 hr of tissue collection, retinal fragments were transferred using a 3 mL Pasteur pipette into individual organotypic culture inserts (BD Falcon), which were in turn placed within a 24-well plate. 400 uL of media was placed beneath the insert and 100 uL of media within the insert. 24 hr after culturing the retinal explants, the media was replaced with media containing 3.125 uM or 18.75 uM of HCQ. The explants were incubated in the HCQ medium for 1 hour prior to transduction with 1×10^9 genome copies of rAAV2.CAG.GFP.WPRE.pA vector. The explants were imaged every 2 days for 11 days and the mean grey value (representative of GFP fluorescence) of the explants was measured using ImageJ software (FIG. 3a).

Mouse retinas = assay: Subretinal co-injection of AAV GFP vector and HCQ in mice, GFP western blot of retinas; type: in vivo; details: 18.75 μM HCQ
Procedure: as §1
Protein extraction. Mouse retinas were thawed on ice and lysed in 1× RIPA buffer+protease inhibitors. The retinas were homogenised using a hand-held homogeniser and incubated on ice for 30 mins. The samples were centrifuged at 17,000×g at 4° C. for 20 mins. The supernatant was transferred to a new tube and kept on ice.
as §4, with “blot (WB).” for “blot.”, “actin.” for “β-actin.”

| SMILES | half-life compared with the other enantiomer [1] | mean retinal thickness or retinal morphology, groups with and without HCQ (retina of C57BL/6 mice [2]) | increase in mean grey value of fundus AF images (surrogate measure of GFP expression) compared to control eyes injected with AAV only (retina of C57BL/6 mice [3]) | GFP protein expression increase compared to transduced cells incubated without HCQ (Primary NHP RPE cells [4]; 3 days post-transduction (FIGS. 2a and 2b)) | GFP protein expression improvement by western blot (Primary NHP RPE cells [4]; N=2, GFP band density normalised to β-actin (FIG. 2c)) | HCQ concentration that induces cell death ([5]; 7-AAD viability dye, 3 days post-transduction) | number of GFP expressing cells ([5]; HCQ 3.125-50 uM from 1 hr before transduction, rAAV2.CAG.GFP.WPRE.pA MOI 1000, 3 days post-transduction) | GFP mRNA expression, fold change to transduced cells incubated without HCQ (Primary NHP RPE cells [6]) | increase in mean grey value (representative of GFP fluorescence) compared to no HCQ (human retinal explants) | GFP signal detected by WB compared to the 0 μM HCQ paired eye (Mouse retinas) |
| --- | --- | --- | --- | --- | --- | --- | --- | --- | --- | --- |
| O[C@H](c1cc(C(F)(F)F)nc2c(C(F)(F)F)cccc12)[C@@H]1CCCCN1 (single isomer, unassigned) [(+)-enantiomer] | shorter |  |  |  |  |  |  |  |  |  |
| CCN(CCO)CCCC(C)Nc1ccnc2cc(Cl)ccc12 (stereo not shown) [HCQ, 2-[{4-[(7-chloroquinolin-4-yl)amino]pentyl}(ethyl)amino]ethanol] |  | no significant difference | 2 fold | 19 fold | approximately 4 fold | ≥ 25 µM | increase the number of GFP expressing cells up to 18.75 uM | 3 fold | up to 2 fold | increase in the GFP signal |
